Results published in publication PMC12390684 (Viruses, 2025).

Each molecule was assayed against IN-GCN2 interaction (6xHis-IN / GST-GCN2) (UniProt P04585+Q9P2K8) (assay: biochemical). Details: screen, single dose 100 µM, single replicate; residual AlphaLISA signal normalized to DMSO control.
Type: binding, HIV-1 IN; human GCN2

Sequence of IN-GCN2 interaction (6xHis-IN / GST-GCN2) (Q9P2K8 192-1024, other chains not shown): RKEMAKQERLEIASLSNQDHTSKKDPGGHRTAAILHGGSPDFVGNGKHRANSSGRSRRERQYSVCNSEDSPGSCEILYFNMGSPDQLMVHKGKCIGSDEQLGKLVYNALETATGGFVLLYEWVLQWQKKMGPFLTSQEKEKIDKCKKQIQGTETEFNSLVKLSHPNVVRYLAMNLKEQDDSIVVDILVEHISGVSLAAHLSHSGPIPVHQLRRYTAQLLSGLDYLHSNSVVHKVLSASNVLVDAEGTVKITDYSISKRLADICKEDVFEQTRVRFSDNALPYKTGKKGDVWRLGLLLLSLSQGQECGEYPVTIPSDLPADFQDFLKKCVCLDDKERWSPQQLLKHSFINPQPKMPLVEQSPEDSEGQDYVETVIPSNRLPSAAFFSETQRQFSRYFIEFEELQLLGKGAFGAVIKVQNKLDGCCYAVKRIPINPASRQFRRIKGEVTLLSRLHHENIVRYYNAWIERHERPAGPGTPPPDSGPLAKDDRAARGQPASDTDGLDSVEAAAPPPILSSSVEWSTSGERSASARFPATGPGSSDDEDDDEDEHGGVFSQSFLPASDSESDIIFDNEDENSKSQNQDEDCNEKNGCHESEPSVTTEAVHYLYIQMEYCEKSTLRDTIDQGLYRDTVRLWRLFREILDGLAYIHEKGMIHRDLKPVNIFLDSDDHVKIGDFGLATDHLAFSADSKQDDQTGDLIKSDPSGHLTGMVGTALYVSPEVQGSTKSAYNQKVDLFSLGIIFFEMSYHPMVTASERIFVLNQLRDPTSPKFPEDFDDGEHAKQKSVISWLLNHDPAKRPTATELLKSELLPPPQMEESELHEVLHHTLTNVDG

Row | SMILES | IN-GCN2 interaction (%)
1 | CC1(C)C[C@]23[C@@H]4COC(=O)[C@H]2CC[C@H]1[C@@H]3CC4=O [NSC284437] | 100.65%
2 | C=C(NC(=O)C(=C)NC(=O)c1csc(C2=N[C@@H]3c4csc(n4)[C@H]4NC(=O)c5csc(n5)[C@H]([C@](C)(O)[C@@H](C)O)NC(=O)[C@H]5CSC(=N5)/C(=C/C)NC(=O)[C@H]([C@@H](C)O)NC(=O)c5csc(n5)[C@]3(CC2)NC(=O)[C@H](C)NC(=O)C(=C)NC(=O)C(=C)NC(=O)[C@H](C(C)C)N[C@@H]2C=Cc3c([C@H](C)O)cc(nc3[C@H]2O)C(=O)O[C@@H]4C)n1)C(N)=O [NSC285116] | 79.00%
3 | C[C@]12C(=O)C=CCC1=CC[C@@H]1[C@@H]2CC[C@]2(O)C(=O)O[C@@]3(C)[C@H]4C[C@]5(C)[C@@H](CO[C@@]16O[C@@]32[C@H]5C6=O)C(=O)O4 [NSC287088] | 131.80%
4 | COc1cc2cc(c1Cl)N(C)C(=O)C[C@H](OC(=O)C(C)C)[C@]1(C)O[C@H]1[C@H](C)[C@@H]1C[C@@](O)(NC(=O)O1)[C@H](OC)/C=C/C=C(\C)C2 [NSC292222] | 93.28%
5 | CO[C@@H]1C[C@@H](C[C@H]2CC[C@H](C)[C@H]([C@@H](C)C(=O)[O-])O2)O[C@]2(O[C@](C)([C@H]3CC[C@@](C)([C@@H]4O[C@@H]([C@H]5O[C@@](O)(CO)[C@H](C)C[C@@H]5C)C[C@@H]4C)O3)C[C@H]2C)[C@@H]1C.[Na+] [NSC292567] | 95.66%
6 | CC(=O)OC1C2(CC3N4C(=O)C5(CO)SSC4(CC31O)C(=O)N5C)OC(C)C(C)(C)C2=O (centres unmarked) [NSC294408] | 104.55%
7 | C=C1C(=O)O[C@@H]2/C=C(/CO)CC/C=C(/CO)C[C@@H](OC(=O)C(C)C)[C@@H]12 [NSC295426] | 56.21%
8 | CC(=O)Oc1ccc2ccc(=O)oc2c1OC(C)=O [NSC301683] | 152.96%
9 | C=C1C(=O)O[C@@H]2C[C@@]3(C)CCC[C@H](C)C3=C[C@H]12 [NSC302289] | 117.43%
10 | C=C1C(=O)C2=CC1CCC(=O)C1(C)CCC(OC(C)=O)C(C)(C)C1CC2O (centres unmarked) [NSC302979] | 105.64%
11 | C=C1[C@@H](C)[C@H]2[C@H](Cc3ccccc3)NC(=O)C23[C@H](OC(C)=O)/C=C/[C@@](C)(O)C[C@@H](C)C/C=C/[C@H]3[C@@H]1O (some centres unmarked) [NSC305222] | 109.95%
12 | COc1c2c(c(CC=C(C)C)c3oc(=O)c(-c4ccc(O)cc4)c(O)c13)OC(C)(C)C=C2 [NSC307981] | 101.87%
13 | CO[C@@H]1/C=C/C=C(\C)Cc2cc(O)c(Cl)c(c2)N(C)C(=O)C[C@H](OC(=O)C(C)C)[C@]2(C)O[C@H]2[C@H](C)[C@@H]2C[C@@]1(O)NC(=O)O2 [NSC314018] | 97.15%
14 | Nc1ncnc2c1ncn2[C@@H]1C=C(CO)[C@@H](O)[C@H]1O [NSC316458] | 111.58%
15 | COc1cc2c(c(OC)c1OC)-c1ccc(SC)c(=O)cc1[C@@H](NC(=O)C(F)(F)F)CC2 [NSC320301] | 97.92%
16 | C[C@H](N)C(=O)N[C@@H]1[C@H]2C(=C(O)C[C@@H](O)[C@@H]2O)C(=O)O[C@]1(C)C(Cl)Cl [NSC325014] | 94.06%
17 | CC(O)C1/C=C/C=C/C(=O)OC2CC3OC4C5OC5(C)C(O)CC4(COC(=O)C(O)C(C)CCO1)C2(C)C31CO1 (centres unmarked) [NSC327993] | 115.91%
18 | CC1CCOC(=O)/C=C/C=C/C(=O)OC2CC3OC4C5OC5(C)C(O)CC4(COC(=O)C1O)C2(C)C31CO1 (centres unmarked) [NSC328166] | 102.91%
19 | CC(=O)O[C@@H]1[C@@H](O)[C@H](O[C@H]2[C@H](OC(=O)[C@H]3CC[C@H]4[C@@H](C3)O[C@@]3(C[C@H](OC(=O)/C=C/c5ccccc5)[C@H](C)CO3)[C@]43CO3)O[C@H](C)[C@@H](O)[C@@H]2OC(C)=O)O[C@H](C)[C@H]1O [NSC328426] | 91.16%

Row | SMILES | IN-GCN2 interaction (%)
20 | COC1CC(C)C(OC)c2cc(O)cc(c2O)NC(=O)/C(C)=C\C=C/C(C)C(OC(N)=O)/C(C)=C\C(C)C1OC (centres unmarked) [NSC330500] | 77.16%
21 | CC(=O)O[C@H]1C(=O)[C@@]2(C)[C@H]([C@H](OC(=O)c3ccccc3)[C@]3(O)C[C@H](O)C(C)=C1C3(C)C)[C@]1(OC(C)=O)CO[C@@H]1C[C@@H]2O [NSC330753] | 109.90%
22 | Nc1ncnc2c1ncn2C1OCC(O)C1O (centres unmarked) [NSC330917] | 127.88%
23 | CCCn1cc2c3c(cccc31)[C@H]1C[C@@H](C)CN(C)[C@@H]1C2.O=C(O)C(O)C(O)C(=O)O [NSC332294] | 41.41%
24 | CO[C@@H](/C(C)=C/C=C/C(C)=C/c1coc(C)n1)[C@@H](C)[C@@H]1C[C@H](O)[C@@]2(C)O[C@@H]2/C=C/[C@@H](C)[C@H]2C[C@H](CC(=O)O2)C[C@@H]2O[C@H]2C(=O)O1 [NSC332598] | 94.06%
25 | C[C@@H]1C(=O)C[C@H]2C(C)(C)CCC[C@]2(C)[C@@]1(O)CCc1ccoc1 [NSC332876] | 44.59%
26 | COC(=O)NC1C(C)OC(OC2C/C=C(/C)C3C=CC4C(OC5CC(OC6CCC(OC7CC(O)C(OC8CCC(O)C(C)O8)C(C)O7)C(C)O6)C(OC(C)=O)C(C)O5)C(C)CC(C)C4C3(C)/C(O)=C3/C(=O)OC4(CC(C=O)=CC(O)C4/C=C\2C)C3=O)CC1(C)[N+](=O)[O-] (centres unmarked) [NSC333856] | 110.41%
27 | COc1cc2c(c(OC)c1O)-c1ccc(OC)c(=O)cc1[C@@H](NC(=O)C(F)(F)F)CC2 [NSC335989] | 89.57%
28 | COC(=O)[C@]1(C)CCC[C@]2(C)C3=CC(=O)[C@@]4(C(C)C)O[C@H]4[C@]3(O)CC[C@@H]12 [NSC337783] | 100.26%
29 | CN(C)c1ccc2c(SCC(=O)OCC(=O)[C@@]3(O)CC[C@H]4[C@@H]5CCC6=CC(=O)C=C[C@]6(C)[C@H]5C(=O)C[C@@]43C)c3ccc(N(C)C)cc3nc2c1 [NSC337851] | 15.16%
30 | CCC/C=C/C=C/C(=O)O[C@H]1/C(=C/C(=O)OC)C[C@H]2C[C@H]([C@@H](C)O)OC(=O)C[C@H](O)C[C@@H]3C[C@H](OC(C)=O)C(C)(C)[C@](O)(C[C@@H]4C/C(=C/C(=O)OC)C[C@H](/C=C/C(C)(C)[C@]1(O)O2)O4)O3 [NSC339555] | 32.23%
31 | CO[C@H]1C[C@@H]2\C=C(C)/C=C/C=C\C(=O)N[C@H](c3ccccc3)C/C=C/CC[C@H](O)CC(=O)C2=C1O [NSC343256] | 61.66%
32 | O=C1N[C@@H]2C(=C[C@H](O)[C@@H](O)[C@H]2O)c2cc3c(cc21)OCO3 [NSC349155] | 100.93%
33 | CC(O)CCC(=O)c1ccoc1 (centres unmarked) [NSC349438] | 84.65%
34 | COc1ccc2c(c1)O[C@H]1c3ccc(O)cc3OC[C@@H]21 [NSC350085] | 73.66%
35 | C=Cc1cc(OC)c2c(c1)c(=O)oc1c2cc(OC)c2c(O)ccc(C3OC(C)C(O)C(C)(O)C3O)c21 (centres unmarked) [NSC354844] | 85.63%
36 | CO[C@H]1[C@H](O)[C@@H](O)[C@H](n2c3c(Cl)cccc3c3c4c(c5c6cccc(Cl)c6[nH]c5c32)C(=O)NC4=O)O[C@@H]1CO [NSC359079] | 55.24%
37 | C=C1C(=O)OC2CC(C)C3(O)CCC(=O)C3(C)CC12 (centres unmarked) [NSC361902] | 90.19%
38 | CC(C)=CCCC(C)C1=C(O)C(=O)C(C)=CC1=O (centres unmarked) [NSC365793] | 50.48%

Row | SMILES | IN-GCN2 interaction (%)
39 | C[C@@H]1CC[C@H]2[C@@H](C)C(=O)O[C@@H]3O[C@@]4(C)CC[C@@H]1[C@]32OO4 [NSC369397] | 101.56%
40 | CC1(C)CCC[C@]2(C)C3=C(CC[C@@H]12)C(=O)OC3 [NSC375294] | 100.67%
41 | CC[C@H](C)[C@@H]([C@@H](CC(=O)N1CCC[C@H]1[C@H](OC)[C@@H](C)C(=O)N[C@@H](Cc1ccccc1)c1nccs1)OC)N(C)C(=O)[C@@H](NC(=O)[C@H](C(C)C)N(C)C)C(C)C [NSC376128] | 96.15%
42 | COc1cc2oc3cc(=O)cc4oc(-c5ccccc5)cc(c2c2c1CCC(c1ccccc1)O2)c43 (centres unmarked) [NSC376248] | 71.04%
43 | CC1(C)C(=O)N2c3ccccc3C3(CC(N4C(=O)c5ccccc5C4=O)C(=O)O3)C2N1C(=O)OCc1ccccc1 (centres unmarked) [NSC382796] | 53.34%
44 | CC1=C2C(=CC(C)(C)[C@@H]2O)C(=O)[C@](C)(O)C12CC2 [NSC400978] | 28.97%
45 | C[C@H]1CO[C@H]2C3=C(C(=O)C=CC3=O)[C@@H]3OC(=O)[C@H]4CC[C@@H]5[C@H]1CC[C@@]52[C@@H]43 [NSC401005] | 52.24%
46 | COc1cc([C@@H]2c3cc4c(cc3C[C@H]3COC(=O)[C@@H]32)OCO4)cc(OC)c1OC [NSC403148] | 91.16%
47 | COc1cc2c(c3c1c(=O)c1ccccc1n3C)C=CC(C)(C)O2 [NSC403169] | 89.07%
48 | O=c1oc2c(O)c(O)cc3c(=O)oc4c(O)c(O)cc1c4c23 [NSC407286] | 49.11%
49 | COC(=O)[C@H]1[C@H]2C[C@H]3c4[nH]c5ccccc5c4CCN3C[C@@H]2CC[C@@H]1O [NSC407306] | 114.25%
50 | COc1cc(O[C@@H]2O[C@H](CO)[C@@H](O)[C@H](O)[C@H]2O)c2c(c1)O[C@H](c1ccc(O)cc1)CC2=O [NSC407308] | 92.73%
51 | C[C@]12CC[C@H](O)C[C@H]1CC[C@@H]1[C@@H]2CC[C@]2(C)[C@@H](C3=CC(=O)OC3)CC[C@]12O [NSC407806] | 101.32%
52 | CSC1SC[C@H]2C(=O)N(C)[C@@H](C(C)C)C(=O)OC[C@@H](NC(=O)c3cnc4ccccc4n3)C(=O)N[C@@H](C)C(=O)N(C)[C@@H]1C(=O)N(C)[C@@H](C(C)C)C(=O)OC[C@@H](NC(=O)c1cnc3ccccc3n1)C(=O)N[C@@H](C)C(=O)N2C (some centres unmarked) [NSC526417] | 53.14%
53 | COc1cccc2c1C1COC3C4CC(C(=O)O)C(C(C2)N13)N4C.O=C(O)CC(O)(CC(=O)O)C(=O)O (centres unmarked) [NSC601422] | 152.09%
54 | COc1cccc2c1[C@H](CO)N1[C@H](C#N)[C@@H]3C[C@H](C(=O)O)[C@@H]([C@@H]1C2)N3C [NSC607097] | 110.01%
55 | O[C@@H]1[C@@H](O)[C@@H](O)CN2CC[C@H](O)[C@@H]12 [NSC614552] | 134.45%
56 | CCc1c2c(nc3ccc(OC(=O)N4CCC(N5CCCCC5)CC4)cc13)-c1cc3c(c(=O)n1C2)COC(=O)[C@]3(O)CC [NSC616348] | 97.94%
